This experiment deals with E. Coli 31. Briefly: in vitro antimicrobial activity, two-fold agar-plate dilution method. Type of experiment: cell-based. The following applies: Escherichia coli; test strain E. Coli 31; 10^6 viable cells per ml; HI-agar; 37° C., 20 hours; read-out: MIC (minimal inhibitory concentration). On the procedure: in vitro Antimicrobial Activity was determined by the two-fold agar-plate dilution method as described blow.
One loopful of an overnight culture of a test strain in Trypticase-soy broth (10^6 viable cells per ml) was streaked on heart infusion agar (HI-agar) containing graded concentrations of the test compound, and the minimal inhibitory concentration (MIC) was expressed in terms of μg/ml after incubation at 37° C. for 20 hours.

≈ marks a conversion by molar mass, not a printed value.

For the compound `C[C@@H](O)[C@H]1C(=O)N2C(C(=O)O)=C(S[C@@H]3CN[C@H](Cn4ccnc4)C3)[C@H](C)[C@H]12` [Example 2, (4R,5S,6S)-6-((IR)-1-hydroxyethyl) -3-((2S,4S)-2-(imidazol-1-yl)-methylpyrrolidin-4-yl) thio-4-methyl-7-oxo-1-azabicyclo(3.2.0) -hept-2-ene-2-carboxylic acid], the MIC stood at 0.05 µg/mL (≈ 0.127 µM).

These data come from patent publication US4963544A, “3-pyrrolidinylthio-1-azabicyclo[3.2.0]-hept-2-ene-2-carboxylic acid compounds” (Fujisawa Pharmaceutical Company, Ltd., priority 1988, dated 1990).
